According to patent US20190351002A1, “METHOD OF TREATING CANCER, PARASITE, MICROBIAL OR FUNGAL DISEASE” (priority 2017, published 2019):

What was measured:
[1] = tested on: Hep2 (Human Epidermoid Larynx ca) cells; assay: MTT cytotoxicity test on Hep2 cell line; type: cell-based
Source text: The oils of the plant as an extract are used which have been obtained by cold pressing and it has been ensured that the extract is fresh and pure. The extracts that have been obtained through the whole study have been initially diluted with solvents, filtered and sterilized. Cytotoxicity study (MTT test) has been developed as a method regarding the Hep2 cell line in all parameters for initial doses. The maximum dose and dilution sub doses that have been determined accordingly have been repeated controlled groups. Different amounts of Hep2 cells have been tested in flat bottomed 96 well plates for cell culture during the first stage of the study and it has been determined that 2×10^4 cells were optimal for the monolayer layer of 2×10^4 cell per well. A pure oil of Zingiber officinale extract, which has been tested inside various solvents in terms of penetration into cells and homogenous distribution. MTT tests have been carried out relating to Hep2 cells in solvents too. DMSO was selected from solvents such as DMSO and Methanol and was used and cytopathic doses have not been exceeded during the whole study (FIG. 1). Essential oil has been obtained from Ginger and emulsions have been obtained from fixed oil plants (Nigella Sativa etc.) and compounds. According to MTT test (FIG. 2) results that belong to Zingiber officinale, the average OD values of the control group have been determined as 1.38.

Toxoplasma gondii = assay: ELISA test of efficiency against Toxoplasma gondii in infected Hep2 cells; type: cell-based; settings: 48 hour
Source text: An ELISA (Enzyme-Linked Immunosorbent Assay) test (FIG. 3) has been planned and conducted in order to determine efficiency against Toxoplasma gondii.
The ELISA test has been carried out on flat bottom well plates having 96 wells. First of all, the bases of the plates have been covered with a suitable amount of Hep2 cells. […] Following this all wells have been processed again with different doses (determined with MTT) of pyrimtheamine, sulphadiazine—and Ginger (Zingiber officinals) extract, prepared with DMSO.
1 Following all of these procedures, the supernatants were removed from the wells and were retained for 10 minutes with 100 μl cold methanol. • The plates which were ready for the ELISA process were then worked.
The result was read by the ELISA reader device in 30 minutes.

Compound	OD value (MTT test) ([1]; 1 μg/ml)	OD value (MTT test) ([1]; 2 μg/ml)	OD value (MTT test) ([1]; 4 μg/ml)	OD value (MTT test) ([1]; 8 μg/ml)	OD value (MTT test) ([1]; 16 μg/ml)	OD value (MTT test) ([1]; 32 μg/ml)	ELISA OD value / reproduction according to positive control (PK) (Toxoplasma gondii; 0.5 μg/ml) [%]	ELISA OD value / reproduction according to positive control (PK) (Toxoplasma gondii; 4 μg/ml) [%]	ELISA OD value / reproduction according to positive control (PK) (Toxoplasma gondii; 2nd dose (printed '2.1 and 0.5 μg/ml': 2 μg/ml)) [%]	ELISA OD value / reproduction according to positive control (PK) (Toxoplasma gondii; 3rd dose) [%]	OD value (MTT test) ([1]; 50 μg/ml)	OD value (MTT test) ([1]; 100 μg/ml)	OD value (MTT test) ([1]; 200 μg/ml)
CCc1nc(N)nc(N)c1-c1ccc(Cl)cc1 [Pyrimethamine]	1.228	1.198	0.623	0.310	0.209	0.097	75	45	56	54			
Nc1ccc(S(=O)(=O)Nc2ncccn2)cc1 [Sulphadiazine]											1.002	0.827	0.254
